Measurements as given in PubChem BioAssay (NCI).
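The compound was tested at five concentrations on cells cultured in 96-well plates, with a 48-hour exposure period. TGI is the concentration that stops growth completely.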

How the values were obtained:
Assay in all cases: DTP human tumour cell line panel, 48 h
KM12 colon = tested on: KM12 colon
COLO 205 colon = tested on: COLO 205 colon
SN12C renal = tested on: SN12C renal
HOP-92 NSCLC = tested on: HOP-92 NSCLC
SF-268 CNS = tested on: SF-268 CNS
IGROV1 ovarian = tested on: IGROV1 ovarian
SW-620 colon = tested on: SW-620 colon
T-47D breast = tested on: T-47D breast
SR leukemia = tested on: SR leukemia
NCI-H460 lung = tested on: NCI-H460 lung
NCI-H23 lung = tested on: NCI-H23 lung
K-562 leukemia = tested on: K-562 leukemia
LOX IMVI melanoma = tested on: LOX IMVI melanoma
HL-60(TB) leukemia = tested on: HL-60(TB) leukemia
MALME-3M melanoma = tested on: MALME-3M melanoma
PC-3 prostate = tested on: PC-3 prostate
NCI-H226 lung = tested on: NCI-H226 lung
CCRF-CEM leukemia = tested on: CCRF-CEM leukemia
SNB-75 CNS = tested on: SNB-75 CNS
SK-MEL-2 melanoma = tested on: SK-MEL-2 melanoma

SMILES	TGI (KM12 colon) [µM]	TGI (COLO 205 colon) [µM]	TGI (SN12C renal) [µM]	TGI (HOP-92 NSCLC) [µM]	TGI (SF-268 CNS) [µM]	TGI (IGROV1 ovarian) [µM]	TGI (SW-620 colon) [µM]	TGI (T-47D breast) [µM]	TGI (SR leukemia) [µM]	TGI (NCI-H460 lung) [µM]	TGI (NCI-H23 lung) [µM]	TGI (K-562 leukemia) [µM]	TGI (LOX IMVI melanoma) [µM]	TGI (HL-60(TB) leukemia) [µM]	TGI (MALME-3M melanoma) [µM]	TGI (PC-3 prostate) [µM]	TGI (NCI-H226 lung) [µM]	TGI (CCRF-CEM leukemia) [µM]	TGI (SNB-75 CNS) [µM]	TGI (SK-MEL-2 melanoma) [µM]
CCCCOC(=O)NC(Nc1ccc(S(=O)(=O)Nc2ccc(OC)nn2)cc1)(C(F)(F)F)C(F)(F)F	> 100	> 100	> 100	> 100	> 100	> 100	> 100	> 100	> 100	> 100	> 100	> 100	> 100	> 100	> 100	> 100	> 100	> 100		
COc1cc(/C=C/C(=O)OCCc2ccccc2)ccc1O	30.3	34.8	36.7		47.4	28	41.2	33.2	83.5	37.1	36.5	85.4	36.1	40.2	31.7	28			30.2	42.7
CC(=O)Nc1sc([N+](=O)[O-])cc1S(=O)(=O)c1ccc(Cl)cc1	14.5	1.77	> 100	12.7	> 100	> 100	> 100	12.2		10.2	14.1	> 100	> 100	> 23.5	15.3	10.6	21.9	> 100	11.2	8.54
Oc1ccc2oc3c(O)c4ccccc4cc3c2c1	10.5	28	8.32	41.6	21.5	4.21	14.1	55.4	5.52	53.9	65.3	1.3	21.9	13.5	33.4	> 100		8.47		93
COc1ccc(/C=C2\N=C3Sc4c(nc[nH]c4=O)N3C2=O)cc1	> 100	> 100	> 100	> 100	> 100	> 100	> 100	> 100			> 100	> 100	> 100	> 100	> 100	> 100	> 100	> 100	> 100	> 100
O=C1C(Cl)=C(N2C(=O)CCCC2=O)C(=O)c2ccccc21	> 100	19.1	46.2	9.29	> 100	30.1	48.3	95.7	57.1	27.8	36	6.54	42.4	4.42		41.7	> 100	23.3	> 100	49
